Data on 17 molecules can be found in publication PMC3480348, “Structure and Activity Analysis of Inauhzin Analogs as Novel Antitumor Compounds That Induce p53 and Inhibit Cell Growth” (PLoS ONE, 2012).

Assay [1] deals with p53 level in H460 and HCT116^+/+ cells. Description: p53 induction by immunoblotting (IB), statement does not separate the cell lines. Format: cell-based, human. To be noted: 18 hrs, 0.5, 2, 10 µM. From the text:
(A–B) Initial Inauhzin analogs were purchased and tested the activity on H460 and HCT116^+/+ by immunoblotting (IB). […]

In assay [2] the test system is H460 cells. Description: 3-day WST-8 cell growth inhibition assay, H460. To be noted: for EC50: Homo sapiens, NCI-H460, 72 h WST-8, average of triplicates, highest concentration 50 µM, read-out: EC50, cell growth inhibition, H460 p53 wild type. Format: cell-based, human.
The subject of assay [3] is H460 cells. Description: 3-day WST-8 cell growth inhibition assay, H460. Format: cell-based, human. The conditions noted are these: for EC90: Homo sapiens, NCI-H460, calculated from EC50 and Hill slope (GraphPad web calculator), read-out: EC90, cell growth inhibition, H460 p53 wild type; for EC90 fold lower than that for INZ, H460: statement covers H460 and HCT116^+/+ together. On the procedure:
(§1) EC90 values were calculated from the EC50 and Hill slope by a web-based calculator: http://www.graphpad.com/quickcalcs/Ecanything1.cfm.

Another assay concerns H1299 cells. Briefly: 3-day WST-8 cell growth inhibition assay, H1299 (p53 null). The class given is cell-based, human. The conditions noted are these: for EC50 / EC90: Homo sapiens; for EC50: NCI-H1299, 72 h WST-8, average of triplicates, highest concentration 100 µM; for effect on p53-null H1299 cells compared with p53-containing cells: in vitro cytotoxicity; for EC50 on H1299 fold higher than on H460 cells: p53-null H1299 vs p53-containing H460; for EC90: NCI-H1299, calculated from EC50 and Hill slope. The protocol: as §1

Assay [4] has as its system HCT116^−/− cells. Briefly: 3-day WST-8 cell growth inhibition assay, HCT116^−/− (p53 null). To be noted: for EC50: Homo sapiens, HCT-116, 72 h WST-8, average of triplicates, highest concentration 100 µM; for effect on p53-null HCT116^−/− cells compared with p53-containing cells: in vitro cytotoxicity. The class given is cell-based, human.
The test system of the next assay is HCT116^+/+ cells. Description: 3-day WST-8 cell growth inhibition assay, HCT116^+/+. Format: cell-based, human. To be noted: for EC90 / EC50: Homo sapiens; for EC90: HCT-116, calculated from EC50 and Hill slope, read-out: EC90, cell growth inhibition, HCT116^+/+ p53 wild type; for EC50: HCT-116, 72 h WST-8, average of triplicates, highest concentration 50 µM, read-out: EC50, cell growth inhibition, HCT116^+/+ p53 wild type; for EC90 fold lower than that for INZ, HCT116^+/+: statement covers H460 and HCT116^+/+ together. The protocol: as §1

For assay [5], the system named is HCT116^−/− cells. Description: 3-day WST-8 cell growth inhibition assay, HCT116^−/− (p53 null). The class given is cell-based. To be noted: Homo sapiens, HCT-116, calculated from EC50 and Hill slope. On the procedure:
as §1

“Also recorded” adds a separate entry of the source. Bounds are passed on as bounds.

For the molecule `CCC(Sc1nnc2c3ccccc3n(CC(=O)c3ccccc3)c2n1)C(=O)N1c2ccccc2Sc2ccccc21` (centres unmarked) [Compound 33, 2-((5-(2-oxo-2-phenylethyl)-5H-[1,2,4]triazino[5,6-b]indol-3-yl)thiol)-1-(10H-phenothiazin-10-yl)butan-1-one], in assay [1], the “p53 induction / activation by synthetic analogs” value is “significant decrease in activity”.

As to `CCOC(=O)CCCC(=O)n1c2ccccc2c2nnc(SC(CC)C(=O)N3c4ccccc4Sc4ccccc43)nc21` (centres unmarked) [Compound 27, Ethyl 5-oxo-5-(3-((1-oxo-1-(10H-phenothiazin-10-yl)butan-2-yl)thio)-5H-[1,2,4]triazino[5,6-b]indol-5-yl)pentanoate], in the assay with H460 cells [2], the EC50 was found to be 3.4 ± 0.3 µM. For the same molecule, the EC90 in the assay on H460 cells [3] was 9 µM.

For the molecule `CCC(Sc1nnc2c3ccccc3n(C(=O)CCCCBr)c2n1)C(=O)N1c2ccccc2Sc2ccccc21` (centres unmarked) [Compound 26, 5-bromo-1-(3-((1-oxo-1-(10H-phenothiazin-10-yl)butan-2-yl)thio)-5H-[1,2, 4]triazino[5,6-b]indol-5-yl)pentan-1-one], the EC50 in the assay on H460 cells [2] was determined as 16 ± 0.9 µM. The EC90 in the assay with H460 cells [3] is 38.2 µM.

On to `CCCCCC(=O)C1(SC(CC)C(=O)N2c3ccccc3Sc3ccccc32)N=c2[nH]c3ccccc3c2=NN1` (centres unmarked) [Compound 23, 1-(3-((1-oxo-1-(10H-phenothiazin-10-yl)butan-2-yl)thio)-5H-[1,2,4]triazino[5,6-b]indol-3-yl)hexan-1-one], for which the EC50 with H460 cells [2] was 6.7 ± 0.7 µM. For the same molecule, the EC90 in the assay on H460 cells [3] was 22.6 µM.

Take `CCC(Sc1nnc2c3ccccc3n(C(=O)c3cccnc3)c2n1)C(=O)N1c2ccccc2Sc2ccccc21` (centres unmarked) [Compound 22, 2-((5-nicotinoyl-5H-[1,2,4]triazino[5,6-b]indol-3-yl)thio)-1-(10H-phenothiazin-10-yl)butan-1-one]: in the assay with H460 cells [2], the EC50 was 4.9 ± 1 µM. Also, in the assay with H460 cells [3], the EC90 was 20.5 µM.

As for `C#CCCn1c2ccccc2c2nnc(SC(CC)C(=O)N3c4ccccc4Sc4ccccc43)nc21` (centres unmarked) [Compound 32, 2-((5(but-3-yn-1-yl)-5H-[1,2,4]triazino[5,6-b]indol-3-yl)thiol)-1-(10H-phenothiazin-10-yl)butan-1-one], the “p53 induction / activation by synthetic analogs” value in assay [1] was “significant decrease in activity”.

As for `CCC(Sc1nnc2c3ccccc3n(CCO)c2n1)C(=O)N1c2ccccc2Sc2ccccc21` (centres unmarked) [Compound 30, 2-((5(2-hydoxyethyl)-5H-[1,2,4]triazino[5,6-b]indol-5-yl)thiol)-1-(10H-phenothiazin-10-yl)butan-1-one], in the assay on H1299 cells, the EC50 amounted to 16.6 µM, the “effect on p53-null H1299 cells compared with p53-containing cells” value is “much less effective” and the “EC50 on H1299 fold higher than on H460 cells” value is 3–15 fold. In the assay with HCT116^−/− cells [4], the EC50 amounted to 7.8 ± 3.4 µM and the “effect on p53-null HCT116^−/− cells compared with p53-containing cells” value is reported as “much less effective”. In the assay on H460 cells [2], the EC50 came to 3.5 ± 0.4 µM. In the assay on H460 cells [3], the EC90 is about 7.7 µM and the “EC90 fold lower than that for INZ, H460” value is on record as 5 fold. For the same molecule, in the assay on HCT116^+/+ cells, the EC90 is 4.6 µM; the EC50 is 0.8 ± 0.5 µM; the “EC90 fold lower than that for INZ, HCT116^+/+” value is on record as 5 fold. Moreover, the “p53 induction / activation by synthetic analogs” value in assay [1] was “comparable to compound 8; also recorded: more potent in p53 activation than their parental compound INZ”.

Consider `CCC(Sc1nnc2c3ccccc3n(CC(=O)O)c2n1)C(=O)N1c2ccccc2Sc2ccccc21` (centres unmarked) [Compound 29, 2-(3-((1-oxo-1-(10H-phenothiazin-10-yl)butan-2-yl)thio)-5H-[1,2,4]triazino[5,6-b]indol-5-yl)acetic acid], for which the “p53 induction / activation by synthetic analogs” value in assay [1] is “essentially inactive”.

`C=CCCC(=O)n1c2ccccc2c2nnc(SC(CC)C(=O)N3c4ccccc4Sc4ccccc43)nc21` (centres unmarked) [Compound 24, 1-(3-((1-oxo-1-(10H-phenothiazin-10-yl)butan-2-yl)thio)-5H-[1,2, 4]triazino[5,6-b]indol-5-yl)pent-4-en-1-one]: in the assay on H460 cells [2], the EC50 came to 5.7 ± 0.3 µM. Further, the EC90 with H460 cells [3] is 14.5 µM.

Take `CCOC(=O)Cn1c2ccccc2c2nnc(SC(CC)C(=O)N3c4ccccc4Sc4ccccc43)nc21` (centres unmarked) [Compound 28, Ethyl 2-(3-((1-oxo-1-(10H-phenothiazin-10-yl)butan-2-yl)thio)-5H-[1,2,4]triazino[5,6-b]indol-5-yl)acetate]: the “p53 induction / activation by synthetic analogs” value in assay [1] is “essentially inactive”.

`CCC(Sc1nnc2c(n1)[nH]c1ccccc12)C(=O)N1c2ccccc2Cc2ccccc21` (centres unmarked) [Compound 8, 2-((5H-[1,2,4]triazino[5,6-b]indol-3-yl)thio)-1-(acridin-10(9H)-yl)butan-1-one]: in the assay with H1299 cells, the EC50 was 10.4 µM, the “effect on p53-null H1299 cells compared with p53-containing cells” value is given as “much less effective” and the “EC50 on H1299 fold higher than on H460 cells” value is recorded as 3–15 fold. Further, in the assay with HCT116^−/− cells [4], the EC50 was 5.9 ± 1 µM and the “effect on p53-null HCT116^−/− cells compared with p53-containing cells” value was “much less effective”. Also, the “fold higher potency than INZ in growth inhibition of H460 cells” value in the assay with H460 cells [2] (EC50 compared with INZ) is on record as “more than 2 fold”. The EC50 with H460 cells [2] worked out at 2.7 µM. Further, in the assay on H460 cells [3], the EC90 was 3.5 to 10 µM and the “EC90 fold lower than that for INZ, H460” value was 3–10 fold. Besides, the “fold higher potency than INZ in growth inhibition of HCT116^+/+ cells” value in the assay with HCT116^+/+ cells (EC50 compared with INZ) is “more than 2 fold”. In addition, in the assay on HCT116^+/+ cells, the EC50 was 1.3 µM and the “EC90 fold lower than that for INZ, HCT116^+/+” value is reported as 3–10 fold. In addition, in assay [1], the “p53 induction / activation by synthetic analogs” value is “drastically induced p53 at 0.5 µM; also recorded: greater potentcy than compound 1; also recorded: more potent in p53 activation than their parental compound INZ”.

For the molecule `CCC(Sc1nnc2c3ccccc3n(C(=O)c3ccccc3)c2n1)C(=O)N1c2ccccc2Sc2ccccc21` (centres unmarked) [Compound 21, 2-((5-benzoyl-5H-[1,2,4]triazino[5,6-b]indol-3-yl)thio)-1-(10H-phenothiazin-10-yl)butan-1-one], the EC90 with H1299 cells is 82.3 µM; with H460 cells [3], 9.6 µM; in the assay on HCT116^+/+ cells it was 21.9 µM; in the assay on HCT116^−/− cells [5], over 1000 µM. The EC50 in the assay with H1299 cells worked out at 12.6 ± 1.4 µM; in the assay on HCT116^−/− cells [4] it was 28.2 ± 1.4 µM; with H460 cells [2], 4.3 ± 0.3 µM; in the assay on HCT116^+/+ cells it was 2.1 ± 1 µM. Besides, the “effect on p53-null H1299 cells compared with p53-containing cells” value in the assay on H1299 cells is recorded as “much less effective”. Besides, the “effect on p53-null HCT116^−/− cells compared with p53-containing cells” value with HCT116^−/− cells [4] was “much less effective”.

On to `CCCCC(Sc1nnc2c(n1)[nH]c1ccccc12)C(=O)N1c2ccccc2Sc2ccccc21` (centres unmarked) [Compound 14, 2-((5H-[1,2,4]triazino[5,6-b]indol-3-yl)thio)-1-(10H-phenothiazin-10-yl)hexan-1-one], for which the “p53 induction / activation by synthetic analogs” value in assay [1] was “lower activity for p53 induction”.

With `CCC(Sc1nnc2c(n1)[nH]c1ccccc12)C(=O)N1c2ccccc2Sc2ccccc21` (centres unmarked) [INZ, 2-((5H-[1,2,4]triazino[5,6-b]indole-3yl)thio)-1-(10H-phenothiazin-10-yl)butan-1-one], in the assay with H1299 cells (H1299, HCT116^−/− vs H460, HCT116^+/+), the “EC90 fold greater in p53-null cells than in p53-containing cell lines” value is recorded as 5–7 fold. Moreover, the EC90 is 217 µM with H1299 cells, 39.9 µM in the assay with H460 cells [3], 30.5 µM with HCT116^+/+ cells and 213 µM in the assay on HCT116^−/− cells [5]. The EC50 with H1299 cells came to 11.6 ± 3.4 µM; in the assay with HCT116^−/− cells [4], 13.3 ± 2.4 µM; in the assay with H460 cells [2] it was 7.7 ± 1.1 µM; in the assay on HCT116^+/+ cells, 2.7 ± 0.3 µM.

For `CCC(Sc1nnc2c(n1)[nH]c1cc(OC)ccc12)C(=O)N1c2ccccc2Sc2ccccc21` (centres unmarked) [Compound 18, 2-((7-methoxy-5H-[1,2,4]triazino[5,6-b]indol-3-yl)thio)-1-(10H-phenothiazin-10-yl)butan-1-one], the “p53 induction / activation by synthetic analogs” value in assay [1] is “marked decrease in p53 activation”.

For `CCC(Sc1nnc2c(n1)[nH]c1ccccc12)C(=O)N1c2ccccc2Oc2ccccc21` (centres unmarked) [Compound 9, 2-((5H-[1,2,4]triazino[5,6-b]indol-3-yl)thio)-1-(10H-phenoxazin-10-yl)butan-1-one], in assay [1], the “p53 induction / activation by synthetic analogs” value was “inactive”.

As to `CCC(Sc1nnc2c(n1)[nH]c1cc(F)ccc12)C(=O)N1c2ccccc2Sc2ccccc21` (centres unmarked) [Compound 15, 2-((7-fluoro-5H-[1,2,4]triazino[5,6-b]indol-3-yl)thio)-1-(10H-phenothiazin-10-yl)butan-1-one], in assay [1], the “p53 induction / activation by synthetic analogs” value is “inactive”.
